Test results taken from US8618111B2, “5-alkynyl-pyrimidines” (Boehringer Ingelheim International GmbH, priority 2010, dated 2013).

Key:
mTOR = mTOR (Homo sapiens (Human), UniProt P42345); assay: mTOR kinase activity assay (phosphorylation status of mTOR substrate 4E-BP1; TR-FRET); assay type: biochemical; conditions: GFP-4E-BP1 substrate, 8 μM ATP
PI3Kalpha = PI3Kalpha (Homo sapiens (Human), UniProt P42336); assay: Inhibition of PI3Kalpha-induced PIP-2 phosphorylation (filter-binding assay); assay type: biochemical; conditions: 33P-ATP
Chain of PI3Kalpha (P42336 whole entry, species assumed): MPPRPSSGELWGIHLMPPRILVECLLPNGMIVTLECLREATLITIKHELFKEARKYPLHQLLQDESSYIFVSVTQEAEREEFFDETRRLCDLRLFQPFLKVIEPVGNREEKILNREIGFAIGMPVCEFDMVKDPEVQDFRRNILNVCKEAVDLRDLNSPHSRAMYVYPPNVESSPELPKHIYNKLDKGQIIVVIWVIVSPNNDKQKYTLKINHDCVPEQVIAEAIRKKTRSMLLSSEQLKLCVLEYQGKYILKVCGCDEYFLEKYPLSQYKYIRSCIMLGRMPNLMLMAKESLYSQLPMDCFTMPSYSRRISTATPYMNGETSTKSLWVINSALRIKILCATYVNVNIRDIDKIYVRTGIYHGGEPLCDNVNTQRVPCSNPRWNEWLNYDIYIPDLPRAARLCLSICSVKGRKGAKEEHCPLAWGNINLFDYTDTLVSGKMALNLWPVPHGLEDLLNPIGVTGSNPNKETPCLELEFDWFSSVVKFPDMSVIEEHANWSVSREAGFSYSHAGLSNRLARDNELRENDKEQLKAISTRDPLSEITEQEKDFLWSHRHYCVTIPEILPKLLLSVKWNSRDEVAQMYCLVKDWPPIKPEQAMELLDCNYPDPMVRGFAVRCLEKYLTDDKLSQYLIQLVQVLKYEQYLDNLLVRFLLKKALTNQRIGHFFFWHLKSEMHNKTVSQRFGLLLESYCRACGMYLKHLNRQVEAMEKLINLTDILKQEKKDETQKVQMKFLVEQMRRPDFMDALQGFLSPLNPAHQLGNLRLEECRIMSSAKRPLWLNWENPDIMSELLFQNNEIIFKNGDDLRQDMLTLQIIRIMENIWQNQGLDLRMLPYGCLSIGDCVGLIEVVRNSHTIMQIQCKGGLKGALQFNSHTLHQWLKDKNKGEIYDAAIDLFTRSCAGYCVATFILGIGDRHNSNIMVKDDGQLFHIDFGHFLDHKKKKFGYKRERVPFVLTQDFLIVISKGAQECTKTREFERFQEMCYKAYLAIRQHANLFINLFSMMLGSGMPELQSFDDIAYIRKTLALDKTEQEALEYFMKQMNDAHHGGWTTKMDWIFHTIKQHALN
Chain of PI3Kalpha (P27986 whole entry partner, species assumed): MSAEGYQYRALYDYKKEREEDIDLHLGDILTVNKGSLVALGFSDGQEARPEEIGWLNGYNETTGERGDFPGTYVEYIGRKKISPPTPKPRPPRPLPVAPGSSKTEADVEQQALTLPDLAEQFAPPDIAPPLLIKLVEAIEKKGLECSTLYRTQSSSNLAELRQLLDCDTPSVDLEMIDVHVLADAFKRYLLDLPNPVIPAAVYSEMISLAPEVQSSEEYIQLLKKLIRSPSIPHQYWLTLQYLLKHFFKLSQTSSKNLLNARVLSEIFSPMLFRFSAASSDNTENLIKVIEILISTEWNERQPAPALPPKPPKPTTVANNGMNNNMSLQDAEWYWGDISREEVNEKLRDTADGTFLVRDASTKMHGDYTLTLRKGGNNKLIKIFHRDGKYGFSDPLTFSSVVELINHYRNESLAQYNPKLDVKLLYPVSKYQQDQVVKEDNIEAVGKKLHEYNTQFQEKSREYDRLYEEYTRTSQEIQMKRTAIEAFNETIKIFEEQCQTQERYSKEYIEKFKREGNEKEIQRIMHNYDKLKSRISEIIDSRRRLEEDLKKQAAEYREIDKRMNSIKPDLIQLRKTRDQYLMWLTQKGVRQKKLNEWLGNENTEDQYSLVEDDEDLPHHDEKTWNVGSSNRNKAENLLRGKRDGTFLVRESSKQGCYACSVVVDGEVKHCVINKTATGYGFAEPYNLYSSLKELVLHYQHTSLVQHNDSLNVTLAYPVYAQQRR
Experimental: Inhibition of PI3Kalpha-Induced PIP-2 Phosphorylation
Method Type: Filter-Binding-Assay
Aliquoted in desired amounts and stored at −80° C. Final assay concentration 25 ng/well.

BT474 = BT474 cell assay (EC50); assay type: cell-based; conditions: Homo sapiens, BT-474; BT474 cells
[1] = system: U87MG human glioblastoma cell line; assay: CyQuant assay in U87MG cells; assay type: cell-based; conditions: U-87 MG, 72 h, 3 days incubation
Experimental: CyQuant Assay in U87MG Cells
3. […] Evaluation • Calculate EC50 using GraphPad Prism (Fifty)

[2] = system: PC3 (human prostate carcinoma cell line) cells; assay: PC3 proliferation test; assay type: cell-based; conditions: PC-3, 72 h, 3 days incubation, DNA dye fluorescence
Experimental: The test is based on measurement of cellular DNA content via fluorescent dye binding. Because cellular DNA content is highly regulated, it is closely proportional to cell number. The extent of proliferation is determined by comparing cell counts for samples treated with drugs with untreated controls.
PC3 (human prostate carcinoma cell line) cells are sown in microtitre plates and incubated overnight in culture medium at 37° C. and 5% CO2. The test substances are diluted stepwise and added to the cells such that the total volume is 200 μL/well. Cells to which diluent, but not substance, is added serve as controls.

Chain of mTOR (P42345 1360-2549): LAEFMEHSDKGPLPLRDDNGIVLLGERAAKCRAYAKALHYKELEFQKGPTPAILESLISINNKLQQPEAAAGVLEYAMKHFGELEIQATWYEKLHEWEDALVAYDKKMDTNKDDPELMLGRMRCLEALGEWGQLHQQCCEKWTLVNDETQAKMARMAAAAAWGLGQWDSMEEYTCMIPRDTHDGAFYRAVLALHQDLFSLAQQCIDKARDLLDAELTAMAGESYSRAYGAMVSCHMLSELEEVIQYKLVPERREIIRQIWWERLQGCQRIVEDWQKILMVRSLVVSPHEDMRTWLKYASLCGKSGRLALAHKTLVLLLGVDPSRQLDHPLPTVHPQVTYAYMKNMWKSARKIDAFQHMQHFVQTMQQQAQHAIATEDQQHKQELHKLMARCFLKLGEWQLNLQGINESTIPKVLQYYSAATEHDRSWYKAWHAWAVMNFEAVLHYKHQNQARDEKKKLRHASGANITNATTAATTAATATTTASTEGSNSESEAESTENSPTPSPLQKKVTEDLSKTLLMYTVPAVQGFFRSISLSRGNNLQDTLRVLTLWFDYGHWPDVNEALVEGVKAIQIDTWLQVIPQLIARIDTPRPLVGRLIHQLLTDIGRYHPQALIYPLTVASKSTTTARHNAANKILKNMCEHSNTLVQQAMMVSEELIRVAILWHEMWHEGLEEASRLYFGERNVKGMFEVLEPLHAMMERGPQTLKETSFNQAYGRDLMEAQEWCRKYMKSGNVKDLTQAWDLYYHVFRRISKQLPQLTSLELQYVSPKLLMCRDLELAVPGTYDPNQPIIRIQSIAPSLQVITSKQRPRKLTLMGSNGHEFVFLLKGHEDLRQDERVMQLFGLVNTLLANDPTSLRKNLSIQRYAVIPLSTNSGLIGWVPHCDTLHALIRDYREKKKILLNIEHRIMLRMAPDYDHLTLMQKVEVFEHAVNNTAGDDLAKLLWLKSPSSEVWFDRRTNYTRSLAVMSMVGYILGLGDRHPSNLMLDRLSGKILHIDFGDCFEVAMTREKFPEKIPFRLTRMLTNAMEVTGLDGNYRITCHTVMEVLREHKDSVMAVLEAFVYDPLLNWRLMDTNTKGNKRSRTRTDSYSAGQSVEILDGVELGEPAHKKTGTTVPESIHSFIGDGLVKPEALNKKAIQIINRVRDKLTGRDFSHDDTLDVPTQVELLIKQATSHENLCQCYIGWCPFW

Compound	IC50 (mTOR) [nM]	IC50 PI3Ka (PI3Kalpha) [nM]	EC50 (BT474) [nM]	EC50 [1] [nM]	EC50 [2] [nM]
CCc1ncnc(N2CCN(C)C(=O)C2)c1C#Cc1ccc(N)nc1 [Example H-13]	37	72	76		
CCc1ncnc(N2CCN(c3cccnc3)CC2)c1C#Cc1ccc(N)nc1 [Example H-23]	14	48	139		
CCc1ncnc(N2CCCCC2)c1C#Cc1ccc(NC)nc1 [Example H-1]	55	214		745	
CCc1ncnc(N2CCN(c3ncccn3)CC2)c1C#Cc1ccc(N)nc1 [Example H-25]	14	48	15		
CCc1ncnc(N2CCN(CCNS(C)(=O)=O)CC2)c1C#Cc1ccc(N)nc1 [Example H-14]	18	60	63		
CCc1ncnc(N2CCc3ncncc3C2)c1C#Cc1ccc(N)nc1 [Example H-11]	27	50	93		
CCc1ncnc(N2CCN(c3ccncc3)CC2)c1C#Cc1ccc(N)nc1 [Example H-22]	49	229	194		
CCc1ncnc(N2CCN(c3ccccn3)CC2)c1C#Cc1ccc(N)nc1 [Example H-21]	33	42	68		
CCc1ncnc(N2CCC3(CC2)COC3)c1C#Cc1ccc(N)nc1 [Example H-7]	138	97	944		
Cc1ncnc(N2CCOC(C)(C)C2)c1C#Cc1ccc(N)nc1 [Example B-1]	105	46			112
Cc1ncnc(N2CCC(O)(c3ccccc3)CC2)c1C#Cc1ccc(N)nc1 [Example B-27]	23	22			56
Cc1ncnc(N2CCCOCC2)c1C#Cc1ccc(N)nc1 [Example B-6]	72	246			441
CCc1ncnc(N2CCC(C=C(C)C)CC2)c1C#Cc1ccc(N)nc1 [Example B-15]	64	622			202
CCc1ncnc(N2CCC3(CCN(C(=O)NC)CC3)CC2)c1C#Cc1ccc(N)nc1 [Example G-13]	35	50			53
CCN(C)C(=O)CC1CCN(c2ncnc(C)c2C#Cc2ccc(N)nc2)CC1 [Example E-7]	53	44			266
Cc1ncnc(N2CCC3(CC2)OCCO3)c1C#Cc1ccc(N)nc1 [Example B-26]	10	60			27
CCc1ncnc(N2CCC3(CCN(C(=O)COC)CC3)CC2)c1C#Cc1ccc(N)nc1 [Example G-12]	32	37			41
CCc1ncnc(N2CCN(c3ccccc3)CC2)c1C#Cc1ccc(N)nc1 [Example H-24]	89	129	78		
CCNC(=O)CC1CCN(c2ncnc(C)c2C#Cc2ccc(N)nc2)CC1 [Example E-5]	58	38			171
Cc1ncnc(N2CCNC(=O)CC2)c1C#Cc1ccc(N)nc1 [Example B-10]	41	93			437
CCc1ncnc(N2CCN(C(C)C)CC2)c1C#Cc1ccc(N)nc1 [Example H-6]	15	55	72		
CC(=O)NC1CCCN(c2ncnc(C)c2C#Cc2ccc(N)nc2)C1 (stereo not drawn) [Example B-24]	46	158			352
CCc1ncnc(N2CCC(NC(C)=O)CC2)c1C#Cc1ccc(N)nc1 [Example B-21]	19	83			162
Cc1ncnc(N2CCC(CCO)CC2)c1C#Cc1ccc(N)nc1 [Example B-30]	9	14			49
Cc1ncnc(N2CCC(CC(=O)N(C)C)CC2)c1C#Cc1ccc(N)nc1 [Example E-1]	45	54			221
CCc1ncnc(N2CCN(CC(C)O)CC2)c1C#Cc1ccc(N)nc1 (stereo not drawn) [Example H-20]	51	152	138		
Cc1ncnc(N2CC[S+]([O-])CC2)c1C#Cc1ccc(N)nc1 [Example B-3]	83	199			501
